Target: T1, Alpha-2A adrenergic receptor (Sus scrofa, UniProt P18871)
T1 sequence (P18871 whole entry): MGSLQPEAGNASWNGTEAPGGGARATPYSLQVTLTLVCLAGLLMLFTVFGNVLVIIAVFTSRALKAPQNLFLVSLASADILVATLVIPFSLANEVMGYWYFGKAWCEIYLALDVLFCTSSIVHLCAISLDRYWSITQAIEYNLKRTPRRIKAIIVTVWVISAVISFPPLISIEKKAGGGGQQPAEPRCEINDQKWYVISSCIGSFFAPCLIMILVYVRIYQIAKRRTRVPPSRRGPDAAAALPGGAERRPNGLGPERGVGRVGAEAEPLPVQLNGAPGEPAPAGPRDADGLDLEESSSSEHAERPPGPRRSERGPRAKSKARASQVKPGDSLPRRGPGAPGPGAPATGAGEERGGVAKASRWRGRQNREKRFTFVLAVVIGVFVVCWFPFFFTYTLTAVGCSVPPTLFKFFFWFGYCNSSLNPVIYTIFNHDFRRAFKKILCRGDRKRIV

C=Cc1sc2ccc(Cl)c3c2c1CN(C)CC3 [SKF 104856]
Ki: 0.0545 µM

— BindingDB's records for PubMed 7903385 (Creighton University, 1993)
